Columns and labels:
[1] = Direct blending of unencapsulated medicament with cyanoacrylic ester (storage stability); type: physicochemical
Method: Adhesive formulations including unencapsulated antibiotics were investigated. The medicaments were vacuum dried for 6 hours at room temperature in the presence of phosphorous pentoxide to remove the residual water. Direct blending of the medicaments with cyanoacrylic ester was conducted in a drying chamber protected by a high-purity nitrogen atmosphere.

[2] = Release of medicament from solidified adhesive film into physiologic saline; type: physicochemical; details: extract in physiologic saline, UV spectroscopy
Method: Samples of adhesive containing either encapsulated Penicillin G or unencapsulated Penicillin G were prepared as described above. Solidification of the adhesives was carried out in moist air so as to provide an accelerated solidification rate. The solidified adhesives having a thickness of about 1 mm were cut into small pieces which were immersed in physiologic saline at room temperature. The aqueous extracts were examined using UV spectroscopy.

[3] = Stability of medicament in aqueous solution or extract (UV, HPLC); details: physiologic saline or aqueous solution
Description: Because the UV spectra of DSP and the extractive aqueous solution of Super Glue™ have overlapped absorptions at 240 nm, the release behavior of cyanoacrylate adhesives containing DSP microcapsules was studied by HPLC instead of UV spectroscopy.

[4] = Solubility in formaldehyde acetone crosslinking solution; type: physicochemical
Description: While not wishing to be limited to any particular mechanism, it is believed that the crosslinking step accounts, in part, for the encapsulation efficiency.

For Nc1ccc(S(N)(=O)=O)cc1 [Sulfanilamide, Sulfanilamidum Crystallinum Sterile], the “shelf life of cyanoacrylate adhesives in the presence of unencapsulated medicament” value ([1]; direct blending under nitrogen) was “more than 24 hours”.

For CC1(C)S[C@@H]2[C@H](NC(=O)Cc3ccccc3)C(=O)N2[C@H]1C(=O)[O-].[Na+] [Penicillin G, Penicillin G Sodium Salt], the “release from solidified adhesive film” value [2] was “no detectable release”, the “observation on direct mixing with Super Glue” value ([1]; unencapsulated medicament) was “Agglomeration was observed” and the “stability in aqueous solution / aqueous extract” value [3] was “observed to decompose during the release process”.

In the case of COc1c(N2CCNC(C)C2)c(F)cc2c(=O)c(C(=O)O)cn(C3CC3)c12 (stereo not drawn) [Gatifloxacin], the “time to solidification after direct mixing” value ([1]; methyl cyanoacrylate (Super Glue) with dry powder, room temperature) is reported as “about 3 hours” and the “solubility in a formaldehyde acetone solution” value [4] is reported as “relatively weak solubility”.

— US20030044380A1, “Adhesive including medicament” (priority 2001, published 2003)
